Assay results from patent publication US4359459A, “O-α-D-Multigalactopyranosyl-O-α-D-multiglucopyranosyl-O-β- D” (American Cyanamid Company, priority 1981, dated 1982).
Counter-ions that a name gives are not always drawn.

Legend:
complement system = details: Br. J. Exp. Pathol. 33: 327 (1952); cited from earlier work
activated human C1 = molecular target: T1, activated human C1 (Homo sapiens, UniProt P09871); test: Test Code 026 (C1 inhibitor); type: biochemical; details: in vitro; twofold serial dilution assay, higher well number indicates higher activity
T1 sequence (P09871 438-688 limits assumed): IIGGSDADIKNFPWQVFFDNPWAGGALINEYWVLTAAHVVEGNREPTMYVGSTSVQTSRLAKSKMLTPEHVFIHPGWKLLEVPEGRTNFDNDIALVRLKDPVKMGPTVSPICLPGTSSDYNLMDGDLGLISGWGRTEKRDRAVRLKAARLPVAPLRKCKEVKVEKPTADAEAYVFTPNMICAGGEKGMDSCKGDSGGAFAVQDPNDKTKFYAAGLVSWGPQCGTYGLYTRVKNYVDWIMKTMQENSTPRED
T1 sequence (P09871 16-437 limits assumed): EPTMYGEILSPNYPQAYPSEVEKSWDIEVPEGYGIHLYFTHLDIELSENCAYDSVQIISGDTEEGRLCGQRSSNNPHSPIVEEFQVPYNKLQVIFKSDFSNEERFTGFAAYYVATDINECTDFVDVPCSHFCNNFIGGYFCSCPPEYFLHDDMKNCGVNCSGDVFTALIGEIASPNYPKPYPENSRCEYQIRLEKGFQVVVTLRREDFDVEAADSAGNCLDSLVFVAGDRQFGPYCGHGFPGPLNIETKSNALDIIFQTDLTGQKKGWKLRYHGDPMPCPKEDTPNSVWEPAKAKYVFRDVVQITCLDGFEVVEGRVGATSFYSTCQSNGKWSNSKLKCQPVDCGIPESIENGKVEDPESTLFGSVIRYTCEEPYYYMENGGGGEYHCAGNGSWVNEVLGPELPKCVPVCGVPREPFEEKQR
Description: (§1) An active inhibitor protects C2 from C1 and C4; (ii) Test Code 035 (C3-C9 inhibitor)--This test determines the ability of the late components of human complement (C3-C9) to lyse EAC 142 in the presence of appropriate dilutions of the test compound. An active inhibitor protects EAC 142 from lysis by human C3-C9; (iii) Test Code 036 (C-Shunt inhibitor)--In this test human erythrocytes rendered fragile are lysed in autologous serum via the shunt pathway activated by cobra venom factor in the presence of appropriate dilutions of the test compound. Inhibition of the shunt pathway results in failure of lysis; (iv) Cap 50 Test-- Here, appropriate amounts of the test compound are added to a pool of guinea pig serum in vitro, after which the undiluted serum capillary tube assay of U.S. Pat. No. 3,876,376 is run. The concentration of compound inhibiting 50% is reported; and (v) Guinea Pig Intraperitoneal Test (GPIP)--Guinea Pigs weighing about 300 g are dosed intraperitoneally (i.p.) with 200 mg/kg of the test compound dissolved in saline and adjusted to pH 7-8. […] Percent inhibition is calculated by comparison with simultaneous controls. […]

[1] = test system: late components of human complement (C3-C9); test: Test Code 035 (C3-C9 inhibitor), lysis of EAC 142; type: biochemical; parameters: key: N = Negative; details: in vitro; twofold serial dilution assay
Description: as §1

shunt pathway = test: Test Code 036 (C-Shunt inhibitor), lysis of fragile human erythrocytes in autologous serum, cobra venom factor; type: biochemical; details: in vitro; twofold serial dilution assay, higher well number indicates higher activity
Description: as §1

complement activity = test: Guinea Pig Intraperitoneal Test (GPIP); type: in vivo, Guinea Pigs; details: 200 mg/kg i.p.
Description: An active inhibitor protects C2 from C1 and C4; (ii) Test Code 035 (C3-C9 inhibitor)--This test determines the ability of the late components of human complement (C3-C9) to lyse EAC 142 in the presence of appropriate dilutions of the test compound. An active inhibitor protects EAC 142 from lysis by human C3-C9; (iii) Test Code 036 (C-Shunt inhibitor)--In this test human erythrocytes rendered fragile are lysed in autologous serum via the shunt pathway activated by cobra venom factor in the presence of appropriate dilutions of the test compound. Inhibition of the shunt pathway results in failure of lysis; (iv) Cap 50 Test-- Here, appropriate amounts of the test compound are added to a pool of guinea pig serum in vitro, after which the undiluted serum capillary tube assay of U.S. Pat. No. 3,876,376 is run. The concentration of compound inhibiting 50% is reported; and (v) Guinea Pig Intraperitoneal Test (GPIP)--Guinea Pigs weighing about 300 g are dosed intraperitoneally (i.p.) with 200 mg/kg of the test compound dissolved in saline and adjusted to pH 7-8. Approximately 0.4 ml blood samples, taken by orbital sinus puncture 30 minutes and one hour after injections, are collected directly into centrifuge tubes; 5 ml blood samples, taken by decapitation 2 hours after injection, are collected directly into diSPo® beakers. The samples are allowed to clot, centrifuged, and the resultant sera are assayed for complement activity using the capillary complement assay. Percent inhibition is calculated by comparison with simultaneous controls. The results of the GPIP appear in Table I together with results of Test Code 026, 035, 036 and Cap 50.

[2] = test system: hereditary angioneurotic edema; details: literature reports; cited from earlier work
human serum = details: both in vitro and in vivo, judged by reduction in total hemolytic complement activity; cited from earlier work

Nc1ccc2cc(S(=O)(=O)[O-])cc(O)c2c1N=Nc1ccc(NC(=O)Nc2ccc(N=Nc3c(N)ccc4cc(S(=O)(=O)[O-])cc(O)c34)c(S(=O)(=O)[O-])c2)cc1S(=O)(=O)[O-].[Na+].[Na+].[Na+].[Na+] [chlorazol fast pink, 3,3'-ureylenebis[6-(2-amino-8-hydroxy-6-sulfo-1-naphthylazo)benzenesulfonic acid], tetrasodium salt]
anti-complementary effect (complement system): anti-complementary effect

O=S(=O)(O)OCC1OC(OCC2OC(COS(=O)(=O)O)(OC3OC(COC4OC(COC5OC(COS(=O)(=O)O)C(OS(=O)(=O)O)C(OS(=O)(=O)O)C5OS(=O)(=O)O)C(OS(=O)(=O)O)C(OS(=O)(=O)O)C4OS(=O)(=O)O)C(OS(=O)(=O)O)C(OS(=O)(=O)O)C3OS(=O)(=O)O)C(OS(=O)(=O)O)C2OS(=O)(=O)O)C(OS(=O)(=O)O)C(OS(=O)(=O)O)C1OC1OC(COS(=O)(=O)O)C(OC2OC(COS(=O)(=O)O)C(OS(=O)(=O)O)C(OS(=O)(=O)O)C2OS(=O)(=O)O)C(OS(=O)(=O)O)C1OS(=O)(=O)O [drawing 11, O-α-D-Galactopyranosyl(1→6)-O-α-D-galactopyranosyl(1→6)-O-α-D-glucopyranosyl(1→2)-O-β-D-fructofuranosyl(1→6)-O-α-D-glucopyranosyl(1→4)-O-α-D-glucopyranosyl-α-D-glucopyranoside, tricosakis (H-sulfate), tricosasalt with trimethylamine]
Cl 026* Wells (activated human C1): +9 Wells
C-Late 035* Wells [1]: N
C-Shunt Inhibition 036* Wells (shunt pathway): +5 Wells

O=S(=O)(O)OCC1OC(OCC2OC(COS(=O)(=O)O)(OC3OC(COC4OC(COC5OC(COS(=O)(=O)O)C(OS(=O)(=O)O)C(OS(=O)(=O)O)C5OS(=O)(=O)O)C(OS(=O)(=O)O)C(OS(=O)(=O)O)C4OS(=O)(=O)O)C(OS(=O)(=O)O)C(OS(=O)(=O)O)C3OS(=O)(=O)O)C(OS(=O)(=O)O)C2OS(=O)(=O)O)C(OS(=O)(=O)O)C(OS(=O)(=O)O)C1OC1OC(COS(=O)(=O)O)C(OC2OC(COS(=O)(=O)O)C(OS(=O)(=O)O)C(OS(=O)(=O)O)C2OS(=O)(=O)O)C(OS(=O)(=O)O)C1OS(=O)(=O)O [drawing 12, O-α-D-Galactopyranosyl(1→6)-O-α-D-galactopyranosyl(1.fwd arw.6)-O-α-D-glucopyranosyl(1→2)-O-β-D-fructofuranosyl(1→6)-O-α-D-glucopyranosyl(1→4)-O-α-D-glucopyranosyl-α-D-glucopyranoside, tricosakis (H-sulfate), tricosasodium salt]
Cl 026* Wells (activated human C1): +9 Wells
C-Late 035* Wells [1]: N
C-Shunt Inhibition 036* Wells (shunt pathway): +5 Wells
In vivo Activity (Guinea Pigs) % Inhibition Intraperitoneal, 30 minutes (complement activity; serum 30 minutes after injection): 63%
In vivo Activity (Guinea Pigs) % Inhibition Intraperitoneal, 60 minutes (complement activity; serum 60 minutes after injection): 61%
In vivo Activity (Guinea Pigs) % Inhibition Intraperitoneal, 120 minutes (complement activity; serum 120 minutes after injection): 67%

NCCCCCC(=O)O [epsilon-aminocaproic acid]
treatment of hereditary angioneurotic edema [2]: used with success

NC[C@H]1CC[C@H](C(=O)O)CC1 [tranexamic acid]
treatment of hereditary angioneurotic edema [2]: used with success

heparin
anti-complementary effect (complement system): anti-complementary effect

pentosanpolysulfoester
anticomplementary activity on human serum (human serum): anticomplementary activity
